Earlier results, collected in US20250186613A1 (The Trustees of the University of Pennsylvania, priority 2022, published 2025).
Read-outs that look alike come from different tables or passages of the source.

Experiments:
[1] = cited from earlier work
[2] = daily 0.05 mg/kg subcutaneous, cited from earlier work
GLP-2 receptor = biological target: T1, GLP-2 receptor (Homo sapiens, UniProt O95838); details: relative to GLP2; cited from earlier work
T1 sequence (O95838 1-553): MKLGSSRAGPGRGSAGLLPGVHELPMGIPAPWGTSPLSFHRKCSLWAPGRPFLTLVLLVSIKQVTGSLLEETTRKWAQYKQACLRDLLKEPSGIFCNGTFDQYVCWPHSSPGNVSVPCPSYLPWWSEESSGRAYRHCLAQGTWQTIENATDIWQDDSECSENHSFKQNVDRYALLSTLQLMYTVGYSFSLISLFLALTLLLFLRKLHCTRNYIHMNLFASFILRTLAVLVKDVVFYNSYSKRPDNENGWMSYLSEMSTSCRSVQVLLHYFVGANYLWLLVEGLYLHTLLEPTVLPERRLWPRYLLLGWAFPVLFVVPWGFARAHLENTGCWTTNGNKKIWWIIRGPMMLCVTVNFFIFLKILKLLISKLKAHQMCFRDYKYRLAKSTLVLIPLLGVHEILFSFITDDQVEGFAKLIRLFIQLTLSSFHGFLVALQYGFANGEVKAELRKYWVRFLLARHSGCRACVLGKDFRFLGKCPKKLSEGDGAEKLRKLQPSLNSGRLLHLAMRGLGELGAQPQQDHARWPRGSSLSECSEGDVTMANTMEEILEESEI

For `CC[C@H](C)[C@H](NC(=O)[C@H](Cc1ccccc1)NC(=O)[C@H](CC(=O)O)NC(=O)[C@H](CCCN=C(N)N)NC(=O)[C@H](C)NC(=O)[C@H](C)NC(=O)[C@H](CC(C)C)NC(=O)[C@H](CC(N)=O)NC(=O)[C@H](CC(=O)O)NC(=O)[C@H](CC(C)C)NC(=O)[C@@H](NC(=O)[C@@H](NC(=O)[C@H](CC(N)=O)NC(=O)[C@H](CCSC)NC(=O)[C@H](CCC(=O)O)NC(=O)[C@H](CC(=O)O)NC(=O)[C@H](CO)NC(=O)[C@H](Cc1ccccc1)NC(=O)[C@H](CO)NC(=O)CNC(=O)[C@H](CC(=O)O)NC(=O)[C@H](C)NC(=O)[C@@H](N)Cc1cnc[nH]1)[C@@H](C)O)[C@@H](C)CC)C(=O)N[C@@H](CC(N)=O)C(=O)N[C@@H](Cc1c[nH]c2ccccc12)C(=O)N[C@@H](CC(C)C)C(=O)N[C@H](C(=O)N[C@@H](CCC(N)=O)C(=O)N[C@H](C(=O)N[C@@H](CCCCN)C(=O)N[C@H](C(=O)N[C@H](C(=O)N[C@@H](CC(=O)O)C(=O)O)[C@@H](C)O)[C@@H](C)CC)[C@@H](C)O)[C@@H](C)CC` [GLP-2], the serum half-life ([1]; native peptide, cleaved by DPP IV) is given as 0.083 h.

In the case of `CC[C@H](C)[C@H](NC(=O)[C@H](Cc1ccccc1)NC(=O)[C@H](CC(=O)O)NC(=O)[C@H](CCCNC(=N)N)NC(=O)[C@H](C)NC(=O)[C@H](C)NC(=O)[C@H](CC(C)C)NC(=O)[C@H](CC(N)=O)NC(=O)[C@H](CC(=O)O)NC(=O)[C@H](CC(C)C)NC(=O)[C@@H](NC(=O)[C@@H](NC(=O)[C@H](CC(N)=O)NC(=O)[C@H](CCSC)NC(=O)[C@H](CCC(=O)O)NC(=O)[C@H](CC(=O)O)NC(=O)[C@H](CO)NC(=O)[C@H](Cc1ccccc1)NC(=O)[C@H](CO)NC(=O)CNC(=O)[C@H](CC(=O)O)NC(=O)CNC(=O)[C@@H](N)Cc1c[nH]cn1)[C@@H](C)O)[C@@H](C)CC)C(=O)N[C@@H](CC(N)=O)C(=O)N[C@@H](Cc1c[nH]c2ccccc12)C(=O)N[C@@H](CC(C)C)C(=O)N[C@H](C(=O)N[C@@H](CCC(N)=O)C(=O)N[C@H](C(=O)N[C@@H](CCCCN)C(=O)N[C@H](C(=O)N[C@H](C(=O)N[C@@H](CC(=O)O)C(=O)O)[C@@H](C)O)[C@@H](C)CC)[C@@H](C)O)[C@@H](C)CC` [Teduglutide], the serum half-life ([1]; A2G mutation for DPP IV resistance) is given as 1.5 h, the “T½ (h)” value ([1]; in vivo) is given as 1.5 (0.1) h and the “patients who achieved >20% reduction of PN volume per week from the baseline” value ([2]; 2 years of treatment) is given as 90%. For the same compound, the “patients who obtained >1 additional days PN off per week from the baseline” value ([2]; 2 years of treatment) was 70% and the PN volume ([2]; throughout 2 years of treatment) was “sustained and continuous reduction of PN volume”.

For Apraglutide, the “EC50 (/GLP2)” value (GLP-2 receptor) is listed as 0.5 /GLP2 and the “T½” value ([1]; in vivo) is listed as 30 h.

In the case of Glepaglutide, the “EC50 (/GLP2)” value (GLP-2 receptor) is given as 4 /GLP2 and the “T½” value ([1]; in vivo) is given as 50 h.
